Source: patent publication US20160083391A1, “TRICYCLIC PIPERAZINE DERIVATIVE” (Sunovion Pharmaceuticals Inc., priority 2014, published 2016)

Tested on: PDE1
Test: In vitro HTRF PDE1 inhibition assay
Type: biochemical
Details: HTRF cGMP assay, 100 nM cyclic GMP, PDE (1A3, 1B or 1C) with calmodulin, 45 minutes at 37° C.; isoform of the tabulated values not stated
Source text: An exemplary procedure for the in vitro Homogenous Time Resolved Fluorescence assay, which can be used to determine the inhibitory action of compounds of the invention toward. PDE1 or its isoforms, follows.
The HTRF PDE1 assay utilized the HTRF (Homogenous Time Resolved Fluorescence) technology, which is based on the competition between unlabeled cyclic nucleotide and cyclic nucleotide labeled with XL665 for the binding to cyclic nucleotide-specific antibody labeled with cryptate. The HTRF signal is thus inversely proportional to the concentration of cyclic nucleotide being measured. Since phosphodiesterases break down cyclic nucleotides the HTRF signal was used to determine PDE activity.
The Cisbio cGMP HTRF assay kit (Cat no: 62GM2PEC) was utilized. Cyclic GMP was diluted to 200 nM in HTRF assay buffer (1 mM CaCl2, 10 mM MgCl2, 10 mM Tris-HCl, 0.1% BSA, pH7.4). 10 μl of compound or DMSO was diluted in 200 nM cyclic GMP solution and added to wells of a 96 well white plate to give 100 nM cyclic GMP in 1% DMSO final concentration. PDE (1A3, 1B or 1C) was diluted to 2× working concentration in HTRF assay buffer with […] Calmodulin, and 10 μl was added to initiate the reaction. The plate was then incubated for 45 minutes at 37° C. d2-Labelled cyclic GMP and anti-cGMP cryptate were diluted in 50 mM phosphate buffer, 0.8M KF, 1% Triton X100, 0.2% BSA, pH7.0. Following incubation 10 μl d2-cGMP, then 10 μl anti cGMP cryptate were added to each well and the plate was incubated for 45 minutes at room temperature. The plate was then read on Perkin Elmer Victor at 2 different FRET readings ex/emm 340 nm/665 nm and 340 nm/615 nm.
Compounds having an IC50 of <1 μM, are denoted as +++. Compounds having an IC50 of 1-10 μM, are denoted as ++. Compounds having an IC50 of >10 μM, are denoted as +.

| IC50 | Compound |
| --- | --- |
| < 1000 nM | COc1cccc(N2Cc3nc4c(cnn4C(C)C)c(=O)n3CC2C)c1 (racemic) [Compound I-151, (±)-1-Isopropyl-8-(3-methoxyphenyl)-7-methyl-6,7,8,9-tetrahydropyrazino[1,2-a]pyrazolo[3,4-d]pyrimidin-4(1H)-one] |
| 1000 to 10000 nM | CCCn1ncc2c(=O)n3c(nc21)CN(Cc1cccc(Cl)c1)CC3 [Compound I-166, 8-(3-Chlorobenzyl)-1-propyl-6,7,8,9-tetrahydropyrazino[1,2-a]pyrazolo[3,4-d]pyrimidin-4(1H)-one] |
| < 1000 nM | CC1Cn2c(nc3c(cnn3C(C)C)c2=O)CN1Cc1ccc(F)cc1 (racemic) [Compound I-148, (±)-8-(4-Fluorobenzyl)-1-isopropyl-7-methyl-6,7,8,9-tetrahydropyrazino[1,2-d]pyrazolo[3,4-d]pyrimidin-4(1H)-one] |
| < 1000 nM | COc1ccccc1CN1CCn2c(nc3c(cnn3C3CCCC3)c2=O)C1 [Compound I-78, 1-Cyclopentyl-8-(2-methoxybenzyl)-6,7,8,9-tetrahydropyrazino[1,2-a]pyrazolo[3,4-d]pyrimidin-4(1H)-one] |
| 1000 to 10000 nM | COCCn1ncc2c(=O)n3c(nc21)CN(Cc1ccc(OC)cc1)CC3 [Compound I-158, 8-(4-Methoxybenzyl)-1-(2-methoxyethyl)-6,7,8,9-tetrahydropyrazino[1,2-a]pyrazolo[3,4-d]pyrimidin-4(1H)-one] |
| < 1000 nM | O=c1c2cnn(C3CC3)c2nc2n1CCN(c1ccc(Cl)cc1)C2 [Compound I-248, 8-(4-Chlorophenyl)-1-cyclopropyl-6,7,8,9-tetrahydropyrazino[1,2-a]pyrazolo[3,4-d]pyrimidin-4(1H)-one] |
| < 1000 nM | COc1ccc(CN2CCn3c(nn4c(CC(C)C)nnc4c3=O)C2)cc1 [Compound I-213, 3-Isobutyl-7-(4-methoxybenzyl)-8,9-dihydro-6H-pyrazino[2,1-c][1,2,4]triazolo[3,4-f][1,2,4]triazin-11(7H)-one] |
| < 1000 nM | CC(C)n1ncc2c(=O)n3c(nc21)CN(c1cccc(Cl)c1)CC3 [Compound I-88, 8-(3-Chlorophenyl)-1-isopropyl-6,7,8,9-tetrahydropyrazino[1,2-a]pyrazolo[3,4-d]pyrimidin-4(1H)-one] |
| < 1000 nM | CC(C)Cn1ncc2c(=O)n3c(nc21)CN(Cc1ccc(Cl)cc1)CC3 [Compound I-74, 8-(4-Chlorobenzyl)-1-isobutyl-6,7,8,9-tetrahydropyrazino[1,2-a]pyrazolo[3,4-d]pyrimidin-4(1H)-one] |
| > 10000 nM | CC(C)c1nn(C)c2c(=O)n3c(nc12)C(C)NCC3 (racemic) [Compound I-14, (±)-3-Isopropyl-1,5-dimethyl-5,6,7,8-tetrahydropyrazino[1,2-a]pyrazolo[4,3-d]pyrimidin-10(1H)-one] |
| 1000 to 10000 nM | CCC1Cn2c(nc3c(cnn3C(C)C)c2=O)CN1c1ccc(Cl)cc1 (racemic) [Compound I-155, (±)-8-(4-Chlorophenyl)-7-ethyl-1-isopropyl-6,7,8,9-tetrahydropyrazino[1,2-a]pyrazolo[3,4-d]pyrimidin-4(1H)-one] |
| 1000 to 10000 nM | COCCn1ncc2c(=O)n3c(nc21)CN(Cc1cccc(Cl)c1)CC3 [Compound I-162, 8-(3-Chlorobenzyl)-1-(2-methoxyethyl)-6,7,8,9-tetrahydropyrazino[1,2-a]pyrazolo[3,4-d]pyrimidin-4(1H)-one] |
| > 10000 nM | CC1CN(C)Cc2nc3c(cnn3C3CCCC3)c(=O)n21 (racemic) [Compound I-100, (±)-1-Cyclopentyl-6,8-dimethyl-6,7,8,9-tetrahydropyrazino[1,2-a]pyrazolo[3,4-d]pyrimidin-4(1H)-one] |
| 1000 to 10000 nM | CCCn1ncc2c(=O)n3c(nc21)CN(Cc1ccc(Cl)cc1)CC3 [Compound I-253, 8-(4-Chlorobenzyl)-1-propyl-6,7,8,9-tetrahydropyrazino[1,2-a]pyrazolo[3,4-d]pyrimidin-4(1H)-one] |
| 1000 to 10000 nM | Cc1ncc(CN2CCn3c(nc4c(cnn4C4CCCC4)c3=O)C2)cn1 [Compound I-195, 1-Cyclopentyl-8-((2-methylpyrimidin-5-yl)methyl)-6,7,8,9-tetrahydropyrazino[1,2-a]pyrazolo[3,4-d]pyrimidin-4(1H)-one] |
| < 1000 nM | COc1ccc(CN2CCn3c(nn4c(C(C)C)ncc4c3=O)C2)cc1 [Compound I-178, 3-Isopropyl-7-(4-methoxybenzyl)-8,9-dihydro-6H-imidazo[5,1-f]pyrazino[2,1-c][1,2,4]triazin-11(7H)-one] |

| IC50 | Compound |
| --- | --- |
| > 10000 nM | Cn1ncc2c(=O)n3c(nc21)C(Cc1ccccc1)N(Cc1ccccc1)CC3 (racemic) [Compound I-35, (±)-8,9-Dibenzyl-1-methyl-6,7,8,9-tetrahydropyrazino[1,2-a]pyrazolo[3,4-d]pyrimidin-4(1H)-one] |
| > 10000 nM | CC(C)c1nn(C)c2c(=O)n3c(nc12)C(Cc1ccccc1)N(C)CC3 (racemic) [Compound I-42, (±)-5-Benzyl-3-isopropyl-1,6-dimethyl-5,6,7,8-tetrahydropyrazino[1,2-a]pyrazolo[4,3-d]pyrimidin-10(1H)-one] |
| 1000 to 10000 nM | Cc1cnc(CN2CCn3c(nc4c(cnn4C(C)C)c3=O)C2)cn1 [Compound I-206, 1-Isopropyl-8-((5-methylpyrazin-2-yl)methyl)-6,7,8,9-tetrahydropyrazino[1,2-a]pyrazolo[3,4-d]pyrimidin-4(1H)-one] |
| 1000 to 10000 nM | CC(C)Cc1nnc2c(=O)n3c(nn12)CN(Cc1ccccc1)CC3 [Compound I-214, 7-Benzyl-3-isobutyl-8,9-dihydro-6H-pyrazino[2,1-c][1,2,4]triazolo[3,4-f][1,2,4]triazin-11(7H)-one] |
| > 10000 nM | CC(C)c1nnc2c(=O)n3c(nn12)CN(Cc1ccncc1)CC3 [Compound I-245, 3-Isopropyl-7-(pyridin-4-ylmethyl)-8,9-dihydro-6H-pyrazino[2,1-c][1,2,4]triazolo[3,4-f][1,2,4]triazin-11(7H)-one] |
| < 1000 nM | CC(C)n1ncc2c(=O)n3c(nc21)CN(Cc1cccnc1)CC3 [Compound I-135, 1-Isopropyl-8-(pyridin-3-ylmethyl)-6,7,8,9-tetrahydropyrazino[1,2-a]pyrazolo[3,4-d]pyrimidin-4(1H)-one] |
| < 1000 nM | CC1Cn2c(nc3c(cnn3C(C)C)c2=O)CN1Cc1ccccc1 (racemic) [Compound I-105, (±)-8-Benzyl-1-isopropyl-7-methyl-6,7,8,9-tetrahydropyrazino[1,2-a]pyrazolo[3,4-d]pyrimidin-4(1H)-one] |
| 1000 to 10000 nM | COc1ccc(CN2CCn3c(nn4c(C(C)C)nnc4c3=O)C2)cc1 [Compound I-222, 3-Isopropyl-7-(4-methoxybenzyl)-8,9-dihydro-6H-pyrazino[2,1-c][1,2,4]triazolo[3,4-f][1,2,4]triazin-11(7H)-one] |
| > 10000 nM | COc1ccc(CN2CCc3nc4c(cnn4C(C)C)c(=O)n3CC2)cc1 [Compound I-157, 1-Isopropyl-8-(4-methoxybenzyl)-7,8,9,10-tetrahydro-1H-pyrazolo[3′,4′:4,5]pyrimido[1,2-d][1,4]diazepin-4(6H)-one] |
| 1000 to 10000 nM | Cc1ncc(CN2CCn3c(nn4c(C(C)C)ncc4c3=O)C2)cn1 [Compound I-196, 3-Isopropyl-7-((2-methylpyrimidin-5-yl)methyl)-8,9-dihydro-6H-imidazo[5,1-f]pyrazino[2,1-c][1,2,4]triazin-11(7H)-one] |
| > 10000 nM | CN1CCn2c(nc3[nH]ncc3c2=O)C1Cc1ccccc1 (racemic) [Compound I-23, (±)-9-Benzyl-8-methyl-6,7,8,9-tetrahydropyrazino[1,2-a]pyrazolo[3,4-d]pyrimidin-4(1H)-one] |
| > 10000 nM | Cn1ncc2c(=O)n3c(nc21)CN(Cc1ccccc1)CC3 [Compound I-28, 8-Benzyl-1-methyl-6,7,8,9-tetrahydropyrazino[1,2-a]pyrazolo[3,4-d]pyrimidin-4(1H)-one] |
| < 1000 nM | CC(C)CC1Cn2c(nc3c(cnn3C(C)C)c2=O)CN1c1ccc(Cl)cc1 (racemic) [Compound I-172, (±)-8-(4-Chlorophenyl)-7-isobutyl-1-isopropyl-6,7,8,9-tetrahydropyrazino[1,2-a]pyrazolo[3,4-d]pyrimidin-4(1H)-one] |
| < 1000 nM | COc1cccc(CN2CCn3c(nc4c(cnn4C4CCCC4)c3=O)C2)c1 [Compound I-81, 1-Cyclopentyl-8-(3-methoxybenzyl)-6,7,8,9-tetrahydropyrazino[1,2-a]pyrazolo[3,4-d]pyrimidin-4(1H)-one] |
| > 10000 nM | O=c1c2cnn(-c3ccccc3)c2nc2n1CCN(Cc1ccccc1)C2 [Compound I-30, 8-Benzyl-1-phenyl-6,7,8,9-tetrahydropyrazino[1,2-a]pyrazolo[3,4-d]pyrimidin-4(1H)-one] |
| 1000 to 10000 nM | O=c1c2[nH]nc(C3CCCC3)c2nc2n1CCN(Cc1ccc(Cl)cc1)C2 [Compound I-124, 6-(4-Chlorobenzyl)-3-cyclopentyl-5,6,7,8-tetrahydropyrazino[1,2-a]pyrazolo[4,3-d]pyrimidin-10(1H)-one] |
